In US11666650B2, “Immune composition comprising respiratory syncytial virus (RSV) G polypeptide” (ADVACCINE (SUZHOU) BIOPHARMACEUTICALS CO. LTD., priority 2019, dated 2023):

Assays:
JAWSII cells = experiment: IL-1β inhibition in stimulated JAWSII cells; format: cell-based, mouse; settings: immune regulator alone, LPS+Alum stimulated, 24 hours
Method: JAWSII cells (mouse bone marrow cells) were recovery from liquid nitrogen and put into a water bath at 37° C. The cells were washed twice with the MEM media. The recovered cells were cultured in 10 mL cMEM (MEM+20% FBS+5 ng/mL rmGM-CSF) for 5-7 days. The cells were ready for use after 2 passages.
The cell supernatant was collected for further analysis.
Each supernatant noted above was centrifuged under 12000 rpm at 4° C. for 5 minutes. The level of IL-1β (an immune active biomarker) was measured following the ELISA procedure provided below.
15. Calculate the IL-1β concentration of tested subject by standard curve. Inhibition percentage (%) was calculated as the percentage of the reduction of IL-1β level of each tested sample as compared with the positive control (LPS+Alum) and the blank control.

[1] = tested on: red blood cell suspension; experiment: Hemolytic assay of formulations; format: cell-based, Mouse
Method: Mouse blood was collected and added with 800 μl of 15 mg/ml of EDTA to prevent the coagulation. It was centrifuged at 1,500 rpm for 15 min followed by discarding of the supernatant. The pellet was resuspended into 1 ml PBS, and centrifugated at 1,500 rpm for 15 min. The procedure was repeated for approximately 2 or 3 times until the supernatant became clear. The pellet containing red blood cells was resuspended with PBS at 1:10 to get 10% of red cell suspension after discarding supernatant, then further diluted into 2% with PBS. Five hundred microliters of 2% red blood cell suspension were mixed with 500 μl of different formulations, respectively, for a period of 180 minutes at 37° C. The hemolysis was recorded by a camera from the beginning to the end. After that, sample was centrifuged at 1,500 rpm for 2 min, the absorbance of supernatant was measured at OD405nm and the results were statistically analyzed.

C=CC[C@@H]1/C=C(\C)C[C@H](C)C[C@H](OC)[C@H]2O[C@@](O)(C(=O)C(=O)N3CCCC[C@H]3C(=O)O[C@H](/C(C)=C/[C@@H]3CC[C@@H](O)[C@H](OC)C3)[C@H](C)[C@@H](O)CC1=O)[C@H](C)C[C@@H]2OC [FK506]
inhibition (immune suppression) of IL-1β level (JAWSII cells): around 100%

CC(O)CO (stereo not drawn) [propylene glycol]
hemolysis [1]: Various degrees of hemolysis

CO[C@H]1C[C@@H]2CC[C@@H](C)[C@@](O)(O2)C(=O)C(=O)N2CCCC[C@H]2C(=O)O[C@H]([C@H](C)C[C@@H]2CC[C@@H](O)[C@H](OC)C2)CC(=O)[C@H](C)/C=C(\C)[C@@H](O)[C@@H](OC)C(=O)[C@H](C)C[C@H](C)/C=C/C=C/C=C/1C [rapamycin]
inhibition (immune suppression) of IL-1β level (JAWSII cells): around 60%
